Columns and labels:
Type in all cases: cell-based
[1] = test system: GABAAR (β3^HA) at the plasma membrane, no UT; assay: GABAAR internalization by immunofluorescence in CHO expressing GABAAR alone; details: hUII 10^−8 M, Iso 10^−4 M or both
Experimental: (§1) For double-immunofluorescence, non-permeabilized living CHO cells expressing UT and/or α2β3 ^HAγ2 GABAA receptors were washed two times in PBS, and incubated with monoclonal mouse anti-c-myc and rabbit polyclonal anti-HA (1∶200, Santa-cruz) for 1 h on ice in DMEM. Excess antibody was removed and cells were incubated with the different receptor agonists for 30 min at RT. After several rinses in PBS, cells were fixed in 4% paraformaldehyde at 4°C for 20 min, washed three times in PBS and then incubated at RT for 2 h with appropriate secondary antibodies, i.e. Alexa-488- and 594-conjugated donkey anti-mouse IgGs diluted 1∶300 (Invitrogen). After washing, coverslips were mounted in Eukitt (VWR International, Strasbourg, France).
(§2) All preparations were examined using a confocal laser-scanning microscope (Leica, Heidelberg, Germany) equipped with a Diaplan optical system, a UV laser (excitation wavelength 405 nm) and argon/krypton ion (excitation wavelengths 488/594 nm) laser.

[2] = test system: GABAAR (β3^HA) at the plasma membrane of CHO co-expressing human UT; assay: GABAAR internalization by immunofluorescence in CHO-UT-GABAAR (α2β3^HAγ2); details: hUII 10^−8 M, Iso 10^−4 M or both; 60 min (Figure 9 legend); mean ± SEM, 3 to 18 cells
Experimental: as §1, with “Excess antibody was removed and cells were incubated with the different receptor agonists for 30 min at RT.” left out
as §2

UT in human U87 glioma = assay: Flow cytometry of cell surface UT in U87 glioma; details: hUII 10^−8 M, 30 min
Experimental: (§3) The human cell line from glioblastoma U87 was obtained from the American Type Culture Collection (LGC Standards, Molsheim, France). U87 cells were maintained in DMEM containing 10% FBS and 1% sodium pyruvate. NHA-Astrocytes (Lonza, Walkersville, MD, USA) were cultivated in DMEM culture medium supplemented with 2 mM glutamine, 5 mM HEPES, 1% non essential amino acids, 1% sodium pyruvate, B27, 25 ng/ml EGF, 1% of the antibiotic-antimycotic solution and 10% FBS. All cells were incubated at 37°C in a humidified atmosphere containing 5% CO2. Culture media were replaced every three days.
(§4) Human astrocytes and glioma U87 grown in 75-cm2 flasks until confluence were washed in PBS, detached and spun down at 4°C. The cell pellet was washed, re-suspended in PBS containing 1% BSA and incubated with 10 µg/mL non-immune rabbit IgGs for 30 min. […] Cells were incubated with an FITC- or PerCP-conjugated goat anti-rabbit secondary antibody (Santa Cruz) diluted 1∶200 and measured in the FL1 (530 nm) or FL3 (670 nm) channel. Cells were analyzed on a FACScalibur flow cytometer (BD Biosciences) operated with the Cell QuestTM software. Samples in which the primary antibodies were omitted were used as control to normalize mean fluorescence levels. […] Each histogram plot was recorded from at least 10,000 gated events.

human UT^c-myc = assay: Cell surface ELISA of UT^c-myc in CHO; details: hUII 10^−8 M, 30 min
Text: For UT epitope-tagged with HA (UT^HA), or c-myc (UT^c-myc), human UT receptor cDNA inserted into pcDNA3.1 (Ressource Center, MI, USA) was amplified and PCR products were subcloned using the EcoRI and XhoI sites of pCMV-HA or pCMV-c-myc. Mutant UT receptor cDNAs were constructed by oligonucleotide-directed mutagenesis (Expand High Fidelity PCR System; Roche) using the human UT receptor cDNA inserted into pcDNA3.1 as a template. Two sets of forward and reverse oligonucleotides were used (Table S2) to introduce stop codons in frame of Leu370, Phe351, Gly332 and Thr319 (to generate UT371, UT351, UT332 and UT319, respectively). PCR products were subcloned using the EcoRI and XhoI sites of pCMV-HA after digestion by the same restriction enzymes. Mutagenesis was confirmed by automated nucleotide sequencing.
Cells were plated at 50 000 cells/well in 96-well plates coated with 0.1 mg/ml poly-L-ornithine (Sigma-Aldrich). […] The cells were washed four times with PBS, a colorimetric alkaline phosphatase substrate was added (SuperSignal ELISA, Thermo scientific, Fisher) and the resulting color reaction was measured using a Viktor multilabel plate reader (PerkinElmer, Courtaboeuf, France). Background absorbance from samples transfected with non-tagged receptors or from cells without first antibodies were systematically measured. […]

[3] = test system: UT in native human astrocytes; assay: Flow cytometry of cell surface UT in native human astrocytes; details: hUII 10^−8 M, 30 min
Experimental: as §3, §4

Compound	GABAAR internalization without UT [1]	GABAAR endocytosis [2]	UT at cell surface, U87 (UT in human U87 glioma)	Effect on cell membrane amounts of UT^c-myc (human UT^c-myc)	UT at cell surface, human astrocytes [3]
O=C(O)C1=CCNCC1 [Iso, isoguvacine]	remained able to provoke GABAAR removal from the plasma membrane	39.31±2.84%			
ETPDCFWKYCV (disulfide) [hUII, human urotensin II, synthesized by solid phase methodology]	failed to induce GABAAR internalization	40.29±4.14%	still present at the cell surface in U87	without modifying cell membrane amounts of UT^c-myc	UT internalized in native astrocytes
UII: Urotensin II, species not stated at that place (rUII in astrocytes, hUII in CHO and human cells)			failed to internalize UT in CHO and U87	failed to internalize UT in CHO and U87	led to UT loss from human astrocyte surface
